Assay results reported in paper PMC12675575, “A BRET biosensor for measuring uncompetitive engagement of PRMT5 complexes in cells” (Nature Communications, 2025).
Values joined by “and” are separate entries in the source; they are usually repeats but may differ in a detail not shown here. Identical values can stand only once. Like-named read-outs stand apart in the source and are kept apart here.

Tests used:
PRMT5–MEP50 = details: cited from earlier work; for IC50: read-out: Biochemical (nM), IC50
PRMT5/MEP50 = target: PRMT5/MEP50; set-up: method as in ref 7,8 (a number printed in a supplementary file, which may have a reference list of its own: not looked up in the article's list); details: 20 μM SAM preincubation; read-out: SPR; cited from earlier work
SDMA in MTAP del cells = system: SDMA in MTAP del cells; set-up: method as in ref 7,8 (a number printed in a supplementary file, which may have a reference list of its own: not looked up in the article's list); details: read-out: In-Cell Western (nM), SDMA IC50; cited from earlier work
SDMA in MTAP WT cells [1] = system: SDMA in MTAP WT cells; set-up: method as in ref 7,8 (a number printed in a supplementary file, which may have a reference list of its own: not looked up in the article's list); details: read-out: In-Cell Western (nM), SDMA IC50; cited from earlier work
MTAP del cell lines = system: MTAP del cell lines; set-up: method as in ref 7,8 (a number printed in a supplementary file, which may have a reference list of its own: not looked up in the article's list); details: 10 day viability, read-out: Proliferation (nM), IC50; cited from earlier work
MTAP WT cell lines = system: MTAP WT cell lines; set-up: method as in ref 7,8 (a number printed in a supplementary file, which may have a reference list of its own: not looked up in the article's list); details: 10 day viability, read-out: Proliferation (nM), IC50; cited from earlier work
SDMA in MTAP WT cells [2] = system: SDMA in MTAP WT cells; set-up: method as in ref 9 (a number printed in a supplementary file, which may have a reference list of its own: not looked up in the article's list); details: read-out: In-Cell Western (nM), SDMA EC50; cited from earlier work
PRMT5 [3] = details: 3H-SAM to peptide substrate; read-out: Biochemical (nM), IC50; cited from earlier work
PRMT5:MEP50 complex = target: PRMT5:MEP50 complex; set-up: method as in ref 4 (a number printed in a supplementary file, which may have a reference list of its own: not looked up in the article's list); details: read-out: SPR (pM), Kd; cited from earlier work
[4] = system: SmBB' dimethylation in MCF7 cells; set-up: method as in ref 4 (a number printed in a supplementary file, which may have a reference list of its own: not looked up in the article's list); details: read-out: In-Cell Western (nM), EC50; cited from earlier work
[5] = target: NanoLuc-PRMT5 co-expressed with WDR77 (Homo sapiens, UniProt O14744); assay: Live-cell NanoBRET target engagement with BRET probe CBH-002 in HEK293 cells expressing NanoLuc-PRMT5 and unlabeled WDR77; format: cell-based; set-up: host or cells: HEK293; details: for EC50: HEK293, competitive displacement of CBH-002, 2 h, n=3
Chain of NanoLuc-PRMT5 co-expressed with WDR77 (O14744 whole entry, the tested form may be a part): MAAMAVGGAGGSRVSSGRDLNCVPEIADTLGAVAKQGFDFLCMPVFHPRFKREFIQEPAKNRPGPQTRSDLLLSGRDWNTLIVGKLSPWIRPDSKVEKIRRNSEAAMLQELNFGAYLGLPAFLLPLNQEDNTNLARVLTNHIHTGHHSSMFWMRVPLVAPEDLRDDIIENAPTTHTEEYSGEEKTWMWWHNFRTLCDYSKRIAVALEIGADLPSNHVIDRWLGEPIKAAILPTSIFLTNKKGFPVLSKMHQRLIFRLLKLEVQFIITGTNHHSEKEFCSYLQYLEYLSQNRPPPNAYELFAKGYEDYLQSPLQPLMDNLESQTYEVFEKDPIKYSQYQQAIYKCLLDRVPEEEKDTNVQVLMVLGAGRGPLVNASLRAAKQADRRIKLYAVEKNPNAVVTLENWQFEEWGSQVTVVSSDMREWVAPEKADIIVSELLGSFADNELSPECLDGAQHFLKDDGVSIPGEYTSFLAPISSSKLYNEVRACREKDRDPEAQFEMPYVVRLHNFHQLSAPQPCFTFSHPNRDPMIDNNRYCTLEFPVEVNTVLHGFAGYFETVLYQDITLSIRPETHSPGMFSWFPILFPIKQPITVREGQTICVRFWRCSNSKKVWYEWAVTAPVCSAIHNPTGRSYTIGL
Chain of NanoLuc-PRMT5 co-expressed with WDR77 (Q9BQA1 whole entry partner, the tested form may be a part): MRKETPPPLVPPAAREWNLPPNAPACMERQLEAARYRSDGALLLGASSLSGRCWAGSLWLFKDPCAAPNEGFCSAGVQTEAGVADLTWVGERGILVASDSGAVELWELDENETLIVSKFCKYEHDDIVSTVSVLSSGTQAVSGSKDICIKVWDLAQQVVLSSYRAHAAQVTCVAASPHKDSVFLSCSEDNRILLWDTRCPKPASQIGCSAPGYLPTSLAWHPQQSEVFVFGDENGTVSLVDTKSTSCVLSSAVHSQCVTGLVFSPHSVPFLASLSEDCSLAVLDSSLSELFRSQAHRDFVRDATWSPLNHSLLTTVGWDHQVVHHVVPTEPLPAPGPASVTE
Description: HEK293 cells (ATCC) were cultured in DMEM (Thermo Fisher) + 10% (v/v) FBS (Seredigm), and HCT116 cells (Horizon Discovery, #PAR-034 and #R02-033) were cultured in McCoy’s 5A (Thermo Fisher) + 10% FBS, with incubation in a humidified, 37 °C/5% CO2 incubator. Cells were split 1–3 days prior to performing experiments and used at roughly 80% confluency. […] Cells were transfected according to the manufacturer’s protocol using FuGENE HD (Promega). NanoLuc fusion DNA was diluted into Transfection Carrier DNA (Promega) in Opti-MEM at a ratio of 1:9 (mass/mass), and FuGENE HD was added at a ratio of 1:3 (μg DNA:μL lipid). […] Formed complexes were combined with cells resuspended to a density of 2 × 10^5 cells/mL in Opti-MEM + 1% FBS at a ratio of 1:20 (vol:vol). […] Cells were seeded at a density of 2 × 10^5 cells/mL in Opti-MEM + 1% FBS in 100 μL (96-well). The BRET probe CBH-002 was prepared first as a 100× stock in 100% DMSO (Sigma) and then diluted to a 20× stock in NanoBRET Tracer Dilution buffer (Promega). Test compounds were prepared as 1000× stocks in 100% DMSO and diluted to 10× stocks in Opti-MEM to prepare working stocks. […] NanoBRET Complete 3x Substrate was prepared by combining Nano-Glo Substrate and Extracellular NanoLuc Inhibitor in Opti-MEM, according to the manufacturer’s protocol (Promega).
BRET ratio values were calculated by dividing the acceptor by the donor signal, and raw BRET was converted to milli-BRET (mBRET) units (mBu) by multiplying by 1000.
EC50 values were obtained by fitting the BRET probe and compound affinity curves to a sigmoidal four-parameter fit model in Graphpad Prism:1 Y=Ymin+Ymax−Ymin/1+10^LogEC50−Xh where h is the Hill Slope.
When normalized BRET was used, mBRET values were normalized using2 NormalizedBRET%=(Y−BRETmin)/BRETmax−BRETmin where y = mBRET in the presence of test compound and BRET probe, BRETmin = mBRET at the highest concentration (saturating) of test compound and BRET probe, and BRETmax = mBRET in the presence of vehicle (DMSO) and BRET probe.
Normalized concentration-response curves showing full competition were fit using a 2-parameter model:3 Y=100/1+10^LogEC50−Xh
In situations where only partial competition was observed, the normalized concentration-response curves were fit using Eq. 1 and where Ymin was constrained to >0.

[6] = target: NLuc-PRMT5 co-expressed with WDR77 (Homo sapiens, UniProt O14744); assay: Compound EC50 titrations against MTA, NanoBRET in HEK293 (NLuc-PRMT5 + WDR77), with global Gaddum/Schild or Morrison fits; details: for Schild slope: Global Gaddum/Schild EC50 shift fit, MTA titration; for Right-shift in binding/potency on addition of MTA: HEK293, 300 µM exogenous MTA; for EC50 fold change (EC50 at 300 μM MTA versus vehicle): negative = enhanced potency under high MTA; for Hill slope (Global/Schild fit): constant across [MTA], constrained to 1 for PF06939999 and GSK3326595
Chain of NLuc-PRMT5 co-expressed with WDR77 (O14744 whole entry): as the sequence (O14744 whole entry, the tested form may be a part) above
Chain of NLuc-PRMT5 co-expressed with WDR77 (Q9BQA1 whole entry partner): as the sequence (Q9BQA1 whole entry partner, the tested form may be a part) above
Description: MTA (Sigma) was prepared at 100× in 100% DMSO and diluted to 10× in Opti-MEM. Inhibitors were run as 11 pt, 3-fold dilution curves and MTA as a seven point, 3-fold dilution curve starting at 100 μM. Cells were incubated for 2 h at 37 °C and 5% CO2 prior to BRET measurements. Data was normalized using Eq. (2) where BRETMIN = saturating compound + maximum [MTA], and BRETMAX = BRET signal under vehicle conditions. Curves were fit using Eq. (3), and EC50 values were plotted against MTA concentration to determine the linear range of MTA detection.

PRMT5 [7] = target: PRMT5; set-up: method as in ref 5,6 (a number printed in a supplementary file, which may have a reference list of its own: not looked up in the article's list); details: single-cycle kinetic analysis; read-out: SPR (pM), Kd; cited from earlier work
SDMA levels in A427 = system: SDMA levels in A427; set-up: method as in ref 5,6 (a number printed in a supplementary file, which may have a reference list of its own: not looked up in the article's list); details: read-out: In-Cell Western (nM), IC50; cited from earlier work

Compound: Cn1ncc(-c2ccc3c(=O)[nH]nc(CN)c3c2)c1-c1c(F)c(Cl)cc(OC2CC2)c1C#N [MRTX1719]
- IC50 (PRMT5–MEP50; MTA): 3.6 nM
- IC50 (PRMT5–MEP50; SAM): 20.4 nM
- Enhancement of biochemical IC50 in the presence of MTA (PRMT5–MEP50): 5 fold
- Kd (PRMT5/MEP50): 0.0094 nM
- IC50 (SDMA in MTAP del cells): 8 nM
- IC50 (SDMA in MTAP WT cells [1]): 653 nM
- IC50 (MTAP del cell lines): 12 nM
- IC50 (MTAP WT cell lines): 890 nM

Compound: Cc1cc(NC(=O)C(=O)N2CC(C)CCC2c2ccc3scnc3c2)cnc1N (centres unmarked) [TNG908]
- EC50 (SDMA in MTAP WT cells [2]): 135 nM

Compound: Nc1ncnc2c1ccn2[C@@H]1O[C@H]([C@H](O)c2ccccc2)[C@@H](O)[C@H]1O [LLY-283]
- IC50 (PRMT5 [3]): 22 nM
- Kd (PRMT5:MEP50 complex): 6000 pM
- EC50 [4]: 25 nM
- remaining activity at […] ([5]; HEK293, log([compound]), uM 0.0458, vehicle = 100, read-out: Normalized BRET, Bio rep 1-3): 34%
- remaining activity at […] ([5]; HEK293, log([compound]), uM 0.52, vehicle = 100, read-out: Normalized BRET, Bio rep 1-3): 24.1%
- remaining activity at 0.3715 µM ([5]; HEK293, log([compound]), uM -0.43, vehicle = 100, read-out: Normalized BRET, Bio rep 1-3): 53.7%
- remaining activity at […] ([5]; HEK293, log([compound]), uM -0.91, vehicle = 100, read-out: Normalized BRET, Bio rep 1-3): 66.1%
- remaining activity at 0.04074 µM ([5]; HEK293, log([compound]), uM -1.39, vehicle = 100, read-out: Normalized BRET, Bio rep 1-3): 81.4%
- remaining activity at 0.0138 µM ([5]; HEK293, log([compound]), uM -1.86, vehicle = 100, read-out: Normalized BRET, Bio rep 1-3): 91.4%
- remaining activity at 0.004571 µM ([5]; HEK293, log([compound]), uM -2.34, vehicle = 100, read-out: Normalized BRET, Bio rep 1-3): 97.7%
- remaining activity at 0.001514 µM ([5]; HEK293, log([compound]), uM -2.82, vehicle = 100, read-out: Normalized BRET, Bio rep 1-3): 102%
- remaining activity at 0.0005129 µM ([5]; HEK293, log([compound]), uM -3.29, vehicle = 100, read-out: Normalized BRET, Bio rep 1-3): 107%
- remaining activity at 0.0001698 µM ([5]; HEK293, log([compound]), uM -3.77, vehicle = 100, read-out: Normalized BRET, Bio rep 1-3): 102%
- EC50 ([5]; NanoBRET EC50 (95% CI, nM)): 467 nM
- EC50 ([6]; EC50, [MTA] 0 μM, HEK293, 30 nM CBH-002): 348 nM
- EC50 ([6]; EC50, nM (MTA = 0), Global/Schild fit, HEK293): 365 nM
- Schild slope ([6]; HEK293): 1.1 (0.93 - 1.31)
- A2 (concentration of MTA needed to shift the dose response curve by a factor of 2) ([6]; Global/Schild fit, HEK293): 61 (46-79) M
- Right-shift in binding/potency on addition of MTA [6]: 6 fold
- EC50 fold change (EC50 at 300 μM MTA versus vehicle) ([6]; HEK293): 6 and 6.1
- Hill slope ([6]; [MTA] 0 μM, HEK293): 0.62
- Hill slope ([6]; [MTA] 11.11 μM, HEK293): 0.55
- Hill slope ([6]; [MTA] 100 μM, HEK293): 0.62
- Hill slope ([6]; [MTA] 300 μM, HEK293): 0.64
- Hill slope (Global/Schild fit) [6]: 0.55 (0.51 - 0.59)

Compound: Nc1ncnc2c1ccn2C1OC(C(O)c2ccccc2)C(O)C1O (centres unmarked) [PF-06939999]
- Kd (PRMT5 [7]): 5.8 pM
- IC50 (SDMA levels in A427): 1.1 nM
- remaining activity at […] ([5]; HEK293, log([compound]), uM -0.48, vehicle = 100, read-out: Normalized BRET, Bio rep 1-3): 0.95%
- remaining activity at 0.1122 µM ([5]; HEK293, log([compound]), uM -0.95, vehicle = 100, read-out: Normalized BRET, Bio rep 1-3): 2.4%
- remaining activity at 0.03715 µM ([5]; HEK293, log([compound]), uM -1.43, vehicle = 100, read-out: Normalized BRET, Bio rep 1-3): 5.9%
- remaining activity at […] ([5]; HEK293, log([compound]), uM -1.91, vehicle = 100, read-out: Normalized BRET, Bio rep 1-3): 11.6%
- remaining activity at 0.004074 µM ([5]; HEK293, log([compound]), uM -2.39, vehicle = 100, read-out: Normalized BRET, Bio rep 1-3): 22.9%
- remaining activity at 0.00138 µM ([5]; HEK293, log([compound]), uM -2.86, vehicle = 100, read-out: Normalized BRET, Bio rep 1-3): 51.1%
- remaining activity at 0.0004571 µM ([5]; HEK293, log([compound]), uM -3.34, vehicle = 100, read-out: Normalized BRET, Bio rep 1-3): 72.7%
- remaining activity at 0.0001514 µM ([5]; HEK293, log([compound]), uM -3.82, vehicle = 100, read-out: Normalized BRET, Bio rep 1-3): 89%
- remaining activity at 51.29 pM ([5]; HEK293, log([compound]), uM -4.29, vehicle = 100, read-out: Normalized BRET, Bio rep 1-3): 98.4%
- remaining activity at 16.98 pM ([5]; HEK293, log([compound]), uM -4.77, vehicle = 100, read-out: Normalized BRET, Bio rep 1-3): 102%
- EC50 ([5]; read-out: NanoBRET EC50 (95% CI)): 1.7 nM
- Schild slope ([6]; HEK293): 1.15 (0.88 - 1.51)
- A2 (concentration of MTA needed to shift the dose response curve by a factor of 2) ([6]; Global/Schild fit, HEK293): 172 (137 – 211) M
- Right-shift in binding/potency on addition of MTA [6]: 3 fold
- EC50 fold change (EC50 at 300 μM MTA versus vehicle) ([6]; HEK293): 3 and 2.8
- Hill slope ([6]; [MTA] 0 μM, HEK293): 0.97
- Hill slope ([6]; [MTA] 11.11 μM, HEK293): 0.99
- Hill slope ([6]; [MTA] 100 μM, HEK293): 0.79
- Hill slope ([6]; [MTA] 300 μM, HEK293): 0.76
- Hill slope (Global/Schild fit) [6]: 1
